Assay results reported in patent US20110190492A1, “DIAGNOSTIC PROBE FOR CONFORMATION DISEASE” (TOHOKU UNIVERSITY, priority 2005, published 2011).

Assays:
amyloid β protein = biological target: T1, amyloid β protein (Homo sapiens, UniProt P05067); experiment: Staining test on a brain section of an Alzheimer disease patient (amyloid β protein); format: binding, human (Alzheimer disease patient); settings: 100 μM compound in 50% ethanol, 10 minutes, fluorescence microscopy
T1 construct: from tissue; host or cells: paraffin-embedded human brain sections (temporal lobe, hippocampus) of Alzheimer disease patients
Text: (1) Brain specimens at the temporal lobe and the hippocampus of patients to which a definitive diagnosis of Alzheimer disease had been given, and those of normal senile persons were used. The specimens were given by our coworker, Fukushimura Hospital, Longevity Medicine Institute, and we were given their consent of use of the specimens for our study purpose by the bereaved of the patients (Fukushimura Hospital Ethical Review Board Approval No. 20).
(2) The paraffin-embedded brain tissue was cut into slices having a thickness of 6 μm or 8 μm, and extended and dried on a slide. The paraffin brain section was processed for paraffin removal in xylene twice for 10 minutes, 100% ethanol twice for 5 minutes, 90% ethanol for 5 minutes and running water for 10 minutes in that order.
(3) For pretreatment prior to the staining treatment with a compound of the invention, the sections were processed for autofluorescence removal with lipofuscin. First, the paraffin-removed sections were dipped in 0.25% KMnO4 solution for 20 minutes. These were washed with PBS, twice for 2 minutes, then dipped in 0.1% K2S2O5/oxalic acid solution for about 5 seconds, and then further washed with PBS, three times for 2 minutes.
(4) About 150 μl of a 100 μM solution of a compound of the invention dissolved in 50% ethanol was dropwise applied to the section and reacted for 10 minutes. After dipped five times in tap water, the section was entrapped with Fluor Save Reagent (Calbiochem), and analyzed through microscopy with a fluorescence microscope (Nikon, Eclipse 80i). The images were taken with a digital camera (Nikon Dxm 1200F or Photometrics' Cool SNAP ES).

[1] = tested on: histidine-requiring Salmonella typhimurium TA100 and TA98 strains; experiment: Mutagenicity test (reverse mutation test); format: cell-based
Method: In view of their use, it is desirable that the compounds of the invention have no mutagenicity or have little mutagenicity to a level causing no problem. For investigating the gene mutagenesis of the compounds of the invention, herein carried out was a reverse mutation test with histidine-requiring Salmonella typhimurium TA100 and TA98 strains. Two tests were carried out. One is a test for dose determination test; and the other is for mutagenicity.
The test methods and the mutagenicity of the compounds of the invention are mentioned below. In the dose determination test, six doses of 0.160, 0.800, 4.00, 20.0, 100 and 500 μg/plate (common ratio 5) were tried.
As a result of the dose determination test, when the mutagenicity of the test compound was admitted, then the actual test for mutagenicity was carried out, using the dose capable of giving an accurate dose-reaction curve. When no mutagenicity of the test compound was admitted in the dose determination test and when the growth inhibition of the test cells was admitted therein, then the dose to present the growth inhibition was taken as the maximum dose; and when the growth inhibition was not admitted, then a dose of 5000 μg/plate was taken as the maximum dose. With that, the actual test for mutagenicity was carried out on the level of 6 doses (common ratio 2).
First, a test compound was dissolved or suspended in DMSO, then diluted in order to prepare test compound liquids having a varying concentration.
100 μl of a test compound liquid or a negative control (DMSO) solution was put into a sterilized test tube. Then, for the case in the absence of a metabolic activation system (−S9mix), 500 μl of 0.1 mol/liter sodium-phosphate buffer (pH 7.4) was added to it; and for the case in the presence of a metabolic activation system (+S9mix), 500 μl of S9mix was added to it.
Next, 100 μl of the test strain suspension that had been cultivated with shaking at 37° C. for 8 hours was added to it, and preincubated in a shaking thermostat at 37° C. for 20 minutes. After shaken, 2 ml of top agar was added to it, and the contents were mixed.
Next, the mixture was poured onto a minimal glucose agar plate medium (plate) and spread uniformly thereon, then the top agar was solidified, and the plate was transferred into a thermostat and incubated at 37° C. for 48 hours.
Then, the number of the colonies grown through reverse mutation was counted.
For counting it, […]. After area correction and miss-counting correction, the number of the colonies was computed. When the colony analyzer could not be used owing to the deposition of the test compound or the cell growth inhibition, then the number of the colonies was counted with the naked eye.
In case where the number of the colonies through reverse mutation increased two times or more that of the negative control and where the dose dependency or the reproducibility of the increase was admitted, then the tested sample was decided as positive. When the sample was decided as positive, then the relative activity that indicates the relative comparative value of the intensity of the mutagenicity of the test compound was obtained according to the following formula:
Relative Activity={(number of colonies per plate having the concentration)−(number of colonies per negative control plate)}/the value of concentration (mg/plate).

[2] = Acute toxicity test, intravenous administration to mice; format: in vivo; settings: mice observed for 7 days
Method: The compounds of the invention were tested for their acute toxicity through intravenous administration thereof to mice. Four Crj:CD1 male mice formed one test group, and some test groups of those mice were used (the mean body weight of the mice of each group was from 31 to 32 g). A test compound was dissolved in a mixture of 1 N HCl, polyethylene glycol-400 and distilled water, or dissolved in DMSO, and then diluted with distilled water. This was administered to each mouse via its tail vein.

[3] = irrespective of the absence or presence of S9mix

T1 sequence (P05067 672-713 limits assumed): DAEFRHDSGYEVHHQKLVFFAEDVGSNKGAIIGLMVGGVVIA

| SMILES | binding to amyloid β protein in the brain section of an Alzheimer disease patient (amyloid β protein) | other results |
| --- | --- | --- |
| CN(C)c1ccc(-c2nnc(-c3sc4cc(Cl)ccc4c3Cl)o2)cc1 [THK-262, [4-[5-(3,6-dichloro-benzo[b]thiophen-2-yl)-[1,3,4]oxadiazol-2-yl]-phenyl]-dimethylamine] | bound to the amyloid β protein |  |
| CN(C)c1ccc(/C=C\C=C2C(=O)c3ccccc3C2=O)cc1 [THK-248, 2-[3-(4-dimethylamino-phenyl)-allylidene]-indane-1,3-dione] | bound to the amyloid β protein |  |
| OCC(CF)Oc1ccc2nc(/C=C/c3cnc(N4CCCC4)s3)oc2c1 (centres unmarked) [THK-752, (E)-6-[(1-fluoromethyl-2-hydroxy)ethoxy]-2-[2-[2-(pyrrolidin-1-yl)-thiazol-5-yl]ethenyl]benzoxazole] | The white space arrow indicates amyloid β protein | relative activity [1, 3]: minus; Maximum Permissible Dose [2]: ≧10 mg/kg |
| CN(C)c1ccc(/C=C/C23NC(=O)CCN2c2ccc(Br)cc2C3(C)C)cc1 (centres unmarked) [THK-558, 8-bromo-10a-[2-(4-dimethylamino-phenyl)-vinyl]-10,10-dimethyl 1-3,4,10,10a-tetrahydro-1H-pyrimido[1,2-a]indol-2-one] | bound to the amyloid β protein |  |
| OCC(CF)Oc1ccc2nc(/C=C/c3cnc(N4CCCCCC4)s3)oc2c1 (centres unmarked) [THK-765, (E)-6-[(1-fluoromethyl-2-hydroxy)ethoxy]-2-[2-[2-(homopiperidin-1-yl)thiazol-5-yl]ethenyl]benzoxazole] |  | Maximum Permissible Dose [2]: ≧10 mg/kg |
| O=C1Nc2ccc(Cl)cc2/C1=C/c1ccc(N2CCOCC2)cc1 [THK-276, 5-chloro-3-(4-morpholin-4-yl-benzylidene)-1,3-dihydroindol-2-one] | bound to the amyloid β protein |  |
| Cc1ccc2c(c1)C(C)(C)[C@@]1(/C=C/C=C/c3ccc(N(C)C)cc3)NC(=O)CCN21 (stereo in doubt) [THK-585, 10a-[4-(4-dimethylamino-phenyl)-buta-1,3-dienyl]-8,10,10-trimethyl-3,4,10,10a-tetrahydro-1H-pyrimido[1,2-a]indol-2-one] | bound to the amyloid β protein |  |
| N#CC(C#N)=Cc1ncc(/C=C/c2nc3ccc(OCC(CO)CF)cc3o2)s1 (centres unmarked) [THK-683] |  | relative activity [1, 3]: minus |
| CN1CCN(c2ncc(/C=C/c3nc4ccc(OC(CO)CF)cc4o3)s2)CC1 (centres unmarked) [THK-707, (E)-6-[(1-fluoromethyl-2-hydroxy)ethoxy]-2-[2-[2-(4-methylpiperazin-1-yl)thiazol-5-yl]ethenyl]benzoxazole] |  | relative activity ([1]; in the presence of S9mix): weak; Maximum Permissible Dose [2]: ≧10 mg/kg |
| CC1CN2c3ccccc3C(C)(C)C2(/C=C/c2ccc(N(C)C)cc2)NC1=O (centres unmarked) [THK-559, 10a-[2-(4-dimethylamino-phenyl)-vinyl]-3,10,10-trimethyl-3,4,10,10a-tetrahydro-1H-pyrimido[1,2-a]indol-2-one] | bound to the amyloid β protein |  |
| c1csc(-c2nnc(-c3ccc(N4CCOCC4)cc3)o2)c1 [THK-383, 4-[4-(5-thiophen-2-yl-[1,3,4]oxadiazol-2-yl)-phenyl]-morpholine] | bound to the amyloid β protein |  |
| CN(C)c1ccc(/C=C/C23NC(=O)CN2c2ccc(Br)cc2C3(C)C)cc1 (centres unmarked) [THK-556, 7-bromo-9a-[2-(4-dimethylamino-phenyl)-vinyl]-9,9-dimethyl-9,9a-dihydro-1H-imidazo[1,2-a]indol-2-one] | bound to the amyloid β protein |  |
| COc1ccccc1-c1nnc(-c2ccc(N3CCOCC3)cc2)o1 [THK-385] | bound to the amyloid β protein |  |
| OCC(CF)Oc1ccc2nc(/C=C/c3cnc(N4CCCCC4)s3)oc2c1 (centres unmarked) [THK-713] |  | relative activity [1, 3]: minus; Maximum Permissible Dose [2]: ≧10 mg/kg |
| N#C/C(=C\c1ccc(N2CCOCC2)o1)c1nc2ccccc2[nH]1 [THK-203, 2-(1H-benzimidazol-2-yl)-3-(5-morpholin-4-yl-furan-2-yl)-acrylonitrile] | bound to the amyloid β protein |  |
| O=C1Nc2ccc(Cl)cc2/C1=C/c1ccc(N2CCOCC2)s1 [THK-308, 5-chloro-3-(5-morpholin-4-yl-thiophen-2-ylmethylene)-1,3-dihydroindol-2-one] | bound to the amyloid β protein |  |
| CCN(CC)c1ccc(/C=C/C23NC(=O)CN2c2ccccc2C3(C)C)cc1 (centres unmarked) [THK-563] | bound to the amyloid β protein |  |
| C(=C\c1nc2c(ccc3ccccc32)s1)/c1ccc(N2CCOCC2)cc1 [THK-281, 2-[2-(4-morpholin-4-yl-phenyl)-vinyl]naphthol[1,2-d]thiazole] | bound to the amyloid β protein |  |
| OCC(CF)Oc1ccc2nc(/C=C/c3cnc(N4CCCOCC4)s3)oc2c1 (centres unmarked) [THK-766, (E)-6-[(1-fluoromethyl-2-hydroxy)ethoxy]-2-[2-(2-homomorpholinothiazol-5-yl)ethenyl]benzoxazole] | The white space arrow indicates amyloid β protein | Maximum Permissible Dose [2]: ≧10 mg/kg |
| CN(C)c1ccc(/C=C/C23NC(=O)CN2c2ccccc2C3(C)C)cc1 (centres unmarked) [THK-562] | bound to the amyloid β protein |  |
| CN1CCN(c2ccc(/C=C(\C#N)c3nc4ccccc4[nH]3)o2)CC1 [THK-207, 2-(1H-benzimidazol-2-yl)-3-[5-(4-methyl-piperazin-1-yl)-furan-2-yl]-acrylonitrile] | bound to the amyloid β protein |  |
| Cc1ccc2c(c1)C(C)(C)C1(/C=C/C=C/c3ccc(N(C)C)cc3)NC(=O)CCN21 (centres unmarked) [THK-565, 10a-[4-(4-dimethylamino-phenyl)-buta-1,3-dienyl]-8,10,10-trimethyl-3,4,10,10a-tetrahydro-1H-pyrimido[1,2-a]indol-2-one] | bound to the amyloid β protein |  |
| OCC(CF)Oc1ccc2nc(/C=C/c3cnc(N4CCCOC4)s3)oc2c1 (centres unmarked) [THK-757, (E)-6-[(1-fluoromethyl-2-hydroxy)ethoxy]-2-[2-[2-([1,3]oxadinan-3-yl)-thiazol-5-yl]ethenyl]benzoxazole] |  | Maximum Permissible Dose [2]: ≧10 mg/kg |
| CC1(C)c2ccccc2N2CCC(=O)NC21/C=C/c1ccc(N2CCOCC2)cc1 (centres unmarked) [THK-336] |  | relative activity [1, 3]: minus |
